According to article PMC8155022 (Scientific Reports, 2021):
pIC50: −log10 of the molar value.

Key:
[1] = tested on: rat bone marrow; test: in vivo rat micronucleus test on bone marrow
[2] = molecular target: ADRB1 (Homo sapiens, UniProt P08588); test: GPCR panel, cAMP or calcium FLIPR assays; assay type: cell-based
Procedure: (§1) 28 GPCRs were evaluated through cAMP or calcium FLIPR assays[67].

[3] = molecular target: T1, Aurora-B(h) (Homo sapiens, UniProt Q96GD4); test: Kinase panel; assay type: biochemical
T1 construct: purchased Cerep (receptors, ion channels, transporters); Eurofins Panlabs (kinases)
T1 sequence (Q96GD4 whole entry): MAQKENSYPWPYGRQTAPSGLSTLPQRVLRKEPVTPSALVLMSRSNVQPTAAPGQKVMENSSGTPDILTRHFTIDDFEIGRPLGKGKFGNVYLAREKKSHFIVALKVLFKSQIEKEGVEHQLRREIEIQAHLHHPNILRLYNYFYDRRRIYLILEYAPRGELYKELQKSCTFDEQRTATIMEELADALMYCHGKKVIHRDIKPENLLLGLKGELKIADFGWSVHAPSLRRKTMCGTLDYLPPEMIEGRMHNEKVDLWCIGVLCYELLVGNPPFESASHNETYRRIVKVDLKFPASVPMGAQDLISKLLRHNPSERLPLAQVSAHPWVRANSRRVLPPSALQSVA
Procedure: (§2) Kinase selectivity was conducted by Eurofins Panlabs Inc (St Charles, MO).

[4] = molecular target: T2, mu (h) (MOP) (agonist site) (Homo sapiens, UniProt P35372); test: Cerep panel; assay type: binding
T2 construct: purchased Cerep (receptors, ion channels, transporters); Eurofins Panlabs (kinases)
T2 sequence (P35372 whole entry): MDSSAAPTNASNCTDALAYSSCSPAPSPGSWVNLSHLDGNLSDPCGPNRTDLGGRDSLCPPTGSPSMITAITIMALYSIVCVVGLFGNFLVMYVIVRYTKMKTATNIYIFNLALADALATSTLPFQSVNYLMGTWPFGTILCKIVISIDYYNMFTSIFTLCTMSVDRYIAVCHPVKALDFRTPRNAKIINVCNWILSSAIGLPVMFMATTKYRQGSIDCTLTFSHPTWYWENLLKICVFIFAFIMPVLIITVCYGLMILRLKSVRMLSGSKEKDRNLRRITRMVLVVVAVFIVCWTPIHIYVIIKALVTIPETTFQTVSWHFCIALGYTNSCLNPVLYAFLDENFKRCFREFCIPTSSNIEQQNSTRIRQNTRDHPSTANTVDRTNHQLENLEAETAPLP
Procedure: (§3) A panel of 52 different receptors, ion channels and transporters was tested by Cerep, Inc. (Redmond, WA).

[5] = tested on: healthy human volunteers; test: phase 1 single ascending dose study, safety
Procedure: Randomized, double-blind, placebo-controlled, single center study was designed by Janssen Immunology Clinical Development team and approved by Independent Ethics Committee/Institutional Review Board (Comité voor Medische Ethiek UZA, Wilrijkstraat 10, Edegem, 2650, Belgium). The study was conducted in Janssen’s Clinical Pharmacology Unit in Belgium from May 18th 2017 to April 5th 2018, according to Declaration of Helsinki principles and International Committee on Harmonisation Good Clinical Practice guidelines. […] Participants were healthy males and females of non-childbearing potential (postmenopausal or permanently sterile), aged 18 to 60 years inclusive, with a body mass index of 18 and 30 kg/m^2 and body weight of not less than 50 kg. Informed consent was obtained from all participants. No formal sample size and power calculations were performed. The number of participants chosen for this study was considered adequate to provide a preliminary safety assessment and PK assessment. The randomization was based on a computer-generated treatment randomization schedule prepared and balanced by using randomly permuted blocks. […] Participants and study site staff members including the Investigator were blinded to treatment allocation during entire study period. […] Cohorts 1 to 4 received single oral doses of 10, 30, 100 and 200 mg after an overnight fast, and cohort 5 were dosed 100 mg within 30 min of the start of a standard high fat meal. […] For all parts of the study, adverse events and concomitant medications were assessed and recorded from screening through follow-up (day 14–21 post-dose). The following safety measures were assessed at various time points during the study: medical history, physical examination, neurologic examination, electrocardiogram (12-lead ECG, or continuous telemetry), and vital signs (blood pressure, heart rate, respiratory rate, and temperature). […] This was a Phase 1 first-in-human study with limited sample size, the data generated was descriptive in nature, and no formal statistical hypothesis testing was planned. Although there was no formal interim analysis, assessments of PK and PD samples by cohort and safety assessments were conducted and reviewed during the study to plan dose-escalation and future development.

[6] = tested on: TK6; test: mammalian cell (TK6) micronucleus test; assay type: cell-based; details: in vitro
[7] = molecular target: ADRA2C (Homo sapiens, UniProt P18825); test: GPCR panel, cAMP or calcium FLIPR assays; assay type: cell-based
ADRA2C, sequence (P18825 whole entry, species assumed): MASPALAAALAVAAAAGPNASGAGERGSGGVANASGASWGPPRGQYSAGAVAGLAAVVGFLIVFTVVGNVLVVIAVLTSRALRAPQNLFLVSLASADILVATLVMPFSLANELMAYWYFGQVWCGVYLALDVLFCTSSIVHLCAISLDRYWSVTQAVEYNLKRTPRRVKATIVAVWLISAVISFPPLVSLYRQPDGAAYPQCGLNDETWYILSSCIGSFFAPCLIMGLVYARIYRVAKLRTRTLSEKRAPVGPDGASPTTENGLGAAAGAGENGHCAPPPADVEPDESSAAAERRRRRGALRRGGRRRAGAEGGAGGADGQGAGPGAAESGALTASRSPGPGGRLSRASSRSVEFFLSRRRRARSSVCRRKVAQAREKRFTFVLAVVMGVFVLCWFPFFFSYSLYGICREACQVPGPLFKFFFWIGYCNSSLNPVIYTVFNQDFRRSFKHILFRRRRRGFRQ
Procedure: as §1

[8] = molecular target: T3, IGF-1R(h) (Homo sapiens, UniProt P08069); test: Kinase panel; assay type: biochemical
T3 construct: purchased Cerep (receptors, ion channels, transporters); Eurofins Panlabs (kinases)
Procedure: as §2

[9] = molecular target: T4, Y1 (h) (Homo sapiens, UniProt P25929); test: Cerep panel; assay type: binding
T4 construct: purchased Cerep (receptors, ion channels, transporters); Eurofins Panlabs (kinases)
T4 sequence (P25929 whole entry): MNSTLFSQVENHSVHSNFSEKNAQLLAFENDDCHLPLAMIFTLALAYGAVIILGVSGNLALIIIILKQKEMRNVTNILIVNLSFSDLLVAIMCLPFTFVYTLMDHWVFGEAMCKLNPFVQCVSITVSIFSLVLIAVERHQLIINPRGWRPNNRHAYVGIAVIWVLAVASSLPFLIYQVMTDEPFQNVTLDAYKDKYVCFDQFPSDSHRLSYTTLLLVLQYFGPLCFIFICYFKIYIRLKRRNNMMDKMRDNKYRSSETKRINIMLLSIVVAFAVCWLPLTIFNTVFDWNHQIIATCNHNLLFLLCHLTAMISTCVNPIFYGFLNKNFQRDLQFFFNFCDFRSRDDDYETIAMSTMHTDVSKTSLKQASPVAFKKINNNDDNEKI
Procedure: as §3

[10] = tested on: IMQ-induced skin inflammation in mice; test: imiquimod-induced dermal inflammation model; assay type: in vivo, mouse
[11] = molecular target: T5, VDR (Homo sapiens, UniProt P11473); test: nuclear receptor cellular GAL4 reporter assay; assay type: cell-based; details: agonist and antagonist mode; read-out: potency in agonist and antagonist mode
T5 construct: expressed in transfected cells
T5 sequence (P11473 whole entry, the tested form may be a part): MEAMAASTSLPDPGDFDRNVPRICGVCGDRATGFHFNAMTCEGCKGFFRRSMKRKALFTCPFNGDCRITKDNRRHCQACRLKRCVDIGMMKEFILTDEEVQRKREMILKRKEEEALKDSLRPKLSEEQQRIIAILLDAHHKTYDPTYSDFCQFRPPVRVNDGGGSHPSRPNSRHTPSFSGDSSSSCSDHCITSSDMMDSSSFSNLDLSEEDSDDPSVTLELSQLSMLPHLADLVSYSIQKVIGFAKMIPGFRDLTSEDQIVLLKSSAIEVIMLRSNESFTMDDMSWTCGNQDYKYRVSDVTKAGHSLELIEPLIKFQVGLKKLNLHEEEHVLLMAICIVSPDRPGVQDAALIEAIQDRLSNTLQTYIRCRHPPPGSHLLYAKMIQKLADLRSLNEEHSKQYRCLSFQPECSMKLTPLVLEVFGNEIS

[12] = molecular target: T6, ETA (h) (Homo sapiens, UniProt P25101); test: Cerep panel; assay type: binding
T6 construct: purchased Cerep (receptors, ion channels, transporters); Eurofins Panlabs (kinases)
T6 sequence (P25101 21-427): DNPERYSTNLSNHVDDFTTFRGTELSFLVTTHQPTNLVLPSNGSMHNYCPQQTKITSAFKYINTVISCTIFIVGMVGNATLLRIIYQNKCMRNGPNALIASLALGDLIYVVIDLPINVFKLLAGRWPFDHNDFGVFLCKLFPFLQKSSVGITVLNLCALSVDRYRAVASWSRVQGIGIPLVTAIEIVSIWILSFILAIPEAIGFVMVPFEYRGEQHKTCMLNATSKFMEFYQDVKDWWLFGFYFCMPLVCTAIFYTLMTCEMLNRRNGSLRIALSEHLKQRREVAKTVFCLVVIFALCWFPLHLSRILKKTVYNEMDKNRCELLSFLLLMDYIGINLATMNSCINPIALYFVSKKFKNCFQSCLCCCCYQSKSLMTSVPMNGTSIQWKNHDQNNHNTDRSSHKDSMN
Procedure: as §3

[13] = molecular target: T7, GSK3β(h) (Homo sapiens, UniProt P49841); test: Kinase panel; assay type: biochemical
T7 construct: purchased Cerep (receptors, ion channels, transporters); Eurofins Panlabs (kinases)
T7 sequence (P49841 whole entry): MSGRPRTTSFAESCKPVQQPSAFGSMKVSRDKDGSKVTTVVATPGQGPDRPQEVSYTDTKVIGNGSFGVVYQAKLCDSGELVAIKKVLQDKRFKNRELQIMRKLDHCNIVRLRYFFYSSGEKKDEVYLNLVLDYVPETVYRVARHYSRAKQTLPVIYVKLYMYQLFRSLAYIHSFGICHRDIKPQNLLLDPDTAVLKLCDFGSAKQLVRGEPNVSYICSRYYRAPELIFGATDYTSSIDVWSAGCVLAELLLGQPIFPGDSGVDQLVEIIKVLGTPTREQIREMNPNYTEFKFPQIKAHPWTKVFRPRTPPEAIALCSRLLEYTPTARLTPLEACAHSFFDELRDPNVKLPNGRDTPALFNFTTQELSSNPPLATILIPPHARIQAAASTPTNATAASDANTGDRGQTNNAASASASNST
Procedure: as §2

[14] = molecular target: T8, RXRα (Homo sapiens, UniProt P19793); test: nuclear receptor cellular GAL4 reporter assay; assay type: cell-based; details: agonist and antagonist mode; read-out: potency in agonist and antagonist mode
T8 construct: expressed in transfected cells
T8 sequence (P19793 whole entry, the tested form may be a part): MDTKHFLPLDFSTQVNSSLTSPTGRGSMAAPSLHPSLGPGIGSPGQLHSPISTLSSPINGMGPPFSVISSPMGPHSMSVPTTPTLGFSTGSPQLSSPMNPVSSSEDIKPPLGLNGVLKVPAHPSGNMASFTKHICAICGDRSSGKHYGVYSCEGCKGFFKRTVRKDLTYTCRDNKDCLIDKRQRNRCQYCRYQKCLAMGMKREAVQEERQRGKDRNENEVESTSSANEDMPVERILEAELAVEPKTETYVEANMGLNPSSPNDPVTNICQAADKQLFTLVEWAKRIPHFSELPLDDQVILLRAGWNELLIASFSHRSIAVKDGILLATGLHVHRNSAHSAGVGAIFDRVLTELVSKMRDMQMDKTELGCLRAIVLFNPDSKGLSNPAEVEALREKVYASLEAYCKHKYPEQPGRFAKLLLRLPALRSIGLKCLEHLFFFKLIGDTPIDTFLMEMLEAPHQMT

[15] = molecular target: 5HT1B (Homo sapiens, UniProt P28222); test: GPCR panel, cAMP or calcium FLIPR assays; assay type: cell-based
5HT1B, sequence (P28222 whole entry, species assumed): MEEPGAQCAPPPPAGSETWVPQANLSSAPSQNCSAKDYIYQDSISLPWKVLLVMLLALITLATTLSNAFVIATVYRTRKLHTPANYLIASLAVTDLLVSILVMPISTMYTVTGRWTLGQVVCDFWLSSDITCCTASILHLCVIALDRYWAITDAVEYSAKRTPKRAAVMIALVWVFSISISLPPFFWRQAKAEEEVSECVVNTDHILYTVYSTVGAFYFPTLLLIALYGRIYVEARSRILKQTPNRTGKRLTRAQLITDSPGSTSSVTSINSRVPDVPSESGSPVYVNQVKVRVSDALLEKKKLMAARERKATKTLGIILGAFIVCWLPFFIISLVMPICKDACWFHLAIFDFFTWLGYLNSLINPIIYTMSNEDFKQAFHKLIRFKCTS
Procedure: 28 GPCRs were evaluated through cAMP or calcium FLIPR assays[67]. A panel of 52 different receptors, ion channels and transporters was tested by Cerep, Inc. (Redmond, WA).

[16] = molecular target: T9, 5-HT1A (h) (Homo sapiens, UniProt P08908); test: Cerep panel; assay type: binding
T9 construct: purchased Cerep (receptors, ion channels, transporters); Eurofins Panlabs (kinases)
T9 sequence (P08908 whole entry): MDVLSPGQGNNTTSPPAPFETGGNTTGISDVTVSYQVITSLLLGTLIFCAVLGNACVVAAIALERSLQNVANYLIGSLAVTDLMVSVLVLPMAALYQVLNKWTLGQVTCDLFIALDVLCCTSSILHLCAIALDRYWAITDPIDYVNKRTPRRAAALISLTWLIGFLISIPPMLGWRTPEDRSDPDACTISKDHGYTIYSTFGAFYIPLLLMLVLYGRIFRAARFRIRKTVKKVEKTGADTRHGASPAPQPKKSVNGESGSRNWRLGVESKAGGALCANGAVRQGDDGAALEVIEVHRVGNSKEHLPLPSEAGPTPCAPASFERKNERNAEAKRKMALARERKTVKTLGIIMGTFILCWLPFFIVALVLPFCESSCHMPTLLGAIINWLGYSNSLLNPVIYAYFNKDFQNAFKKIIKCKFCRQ
Procedure: as §3

[17] = 100 mg (fasted) n = 9, single oral dose
[18] = 100 mg (fed) n = 9, single oral dose

ADRB1, sequence (P08588 whole entry): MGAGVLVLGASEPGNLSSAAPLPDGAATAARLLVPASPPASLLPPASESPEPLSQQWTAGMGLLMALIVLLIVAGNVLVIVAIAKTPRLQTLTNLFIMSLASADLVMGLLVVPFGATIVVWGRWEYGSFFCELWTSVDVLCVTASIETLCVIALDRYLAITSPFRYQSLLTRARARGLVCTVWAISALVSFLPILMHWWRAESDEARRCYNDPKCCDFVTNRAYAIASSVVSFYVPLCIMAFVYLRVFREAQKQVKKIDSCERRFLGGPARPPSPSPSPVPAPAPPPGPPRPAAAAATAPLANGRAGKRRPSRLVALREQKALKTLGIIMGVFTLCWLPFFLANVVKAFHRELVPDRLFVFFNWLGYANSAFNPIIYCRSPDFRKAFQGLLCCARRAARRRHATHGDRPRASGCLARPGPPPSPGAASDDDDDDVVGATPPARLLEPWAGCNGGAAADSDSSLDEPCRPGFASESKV

CC1CCCN1C(=O)c1nc(C(=O)NCC(C)(C)O)sc1-c1ccc(C(O)(C(F)(F)F)C(F)(F)F)c(Cl)c1Cl (stereo not shown) [JNJ-61803534]
genetic toxicity [1]: negative
EC50 ([2]; agonist): > 12.5 µM
IC50 ([2]; antagonist): > 12.5 µM
activity at 1 µM [3]: 124%
activity at 10 µM [3]: 145%
inhibition at 1 µM [4]: < 10%
inhibition at 10 µM [4]: 12.2%
Aphthous ulcer, treatment-emergent adverse events ([5]; 10 mg n = 6, single oral dose): 0
Back pain, treatment-emergent adverse events ([5]; 10 mg n = 6, single oral dose): 1
Diarrhea, treatment-emergent adverse events ([5]; 10 mg n = 6, single oral dose): 0
Headache, treatment-emergent adverse events ([5]; 10 mg n = 6, single oral dose): 0
Hypercholesterolaemia, treatment-emergent adverse events ([5]; 10 mg n = 6, single oral dose): 0
Medical device site reaction, treatment-emergent adverse events ([5]; 10 mg n = 6, single oral dose): 0
Musculoskeletal discomfort, treatment-emergent adverse events ([5]; 10 mg n = 6, single oral dose): 0
Nasal congestion, treatment-emergent adverse events ([5]; 10 mg n = 6, single oral dose): 0
Oral herpes, treatment-emergent adverse events ([5]; 10 mg n = 6, single oral dose): 0
Viral upper respiratory tract infection, treatment-emergent adverse events ([5]; 10 mg n = 6, single oral dose): 0
Aphthous ulcer, treatment-emergent adverse events ([5]; 30 mg n = 6, single oral dose): 0
Back pain, treatment-emergent adverse events ([5]; 30 mg n = 6, single oral dose): 0
Diarrhea, treatment-emergent adverse events ([5]; 30 mg n = 6, single oral dose): 0
Headache, treatment-emergent adverse events ([5]; 30 mg n = 6, single oral dose): 1
Hypercholesterolaemia, treatment-emergent adverse events ([5]; 30 mg n = 6, single oral dose): 0
Medical device site reaction, treatment-emergent adverse events ([5]; 30 mg n = 6, single oral dose): 1
Musculoskeletal discomfort, treatment-emergent adverse events ([5]; 30 mg n = 6, single oral dose): 0
Nasal congestion, treatment-emergent adverse events ([5]; 30 mg n = 6, single oral dose): 0
Oral herpes, treatment-emergent adverse events ([5]; 30 mg n = 6, single oral dose): 1
Viral upper respiratory tract infection, treatment-emergent adverse events ([5]; 30 mg n = 6, single oral dose): 0
Aphthous ulcer, treatment-emergent adverse events [5, 17]: 0
Back pain, treatment-emergent adverse events [5, 17]: 1
Diarrhea, treatment-emergent adverse events [5, 17]: 2
Headache, treatment-emergent adverse events [5, 17]: 4
Hypercholesterolaemia, treatment-emergent adverse events [5, 17]: 2
Medical device site reaction, treatment-emergent adverse events [5, 17]: 2
Musculoskeletal discomfort, treatment-emergent adverse events [5, 17]: 0
Nasal congestion, treatment-emergent adverse events [5, 17]: 2
Oral herpes, treatment-emergent adverse events [5, 17]: 0
Viral upper respiratory tract infection, treatment-emergent adverse events [5, 17]: 2
Aphthous ulcer, treatment-emergent adverse events [5, 18]: 1
Back pain, treatment-emergent adverse events [5, 18]: 1
Diarrhea, treatment-emergent adverse events [5, 18]: 2
Headache, treatment-emergent adverse events [5, 18]: 0
Hypercholesterolaemia, treatment-emergent adverse events [5, 18]: 0
Medical device site reaction, treatment-emergent adverse events [5, 18]: 2
Musculoskeletal discomfort, treatment-emergent adverse events [5, 18]: 0
Nasal congestion, treatment-emergent adverse events [5, 18]: 0
Oral herpes, treatment-emergent adverse events [5, 18]: 1
Viral upper respiratory tract infection, treatment-emergent adverse events [5, 18]: 2
participants with clinically significant high cholesterol values ([5]; 100 mg fasted group): 2
participants with clinically significant high cholesterol values ([5]; 200 mg fasted group): one
Aphthous ulcer, treatment-emergent adverse events ([5]; 200 mg n = 6, single oral dose): 1
Back pain, treatment-emergent adverse events ([5]; 200 mg n = 6, single oral dose): 1
Diarrhea, treatment-emergent adverse events ([5]; 200 mg n = 6, single oral dose): 0
Headache, treatment-emergent adverse events ([5]; 200 mg n = 6, single oral dose): 0
Hypercholesterolaemia, treatment-emergent adverse events ([5]; 200 mg n = 6, single oral dose): 1
Medical device site reaction, treatment-emergent adverse events ([5]; 200 mg n = 6, single oral dose): 1
Musculoskeletal discomfort, treatment-emergent adverse events ([5]; 200 mg n = 6, single oral dose): 2
Nasal congestion, treatment-emergent adverse events ([5]; 200 mg n = 6, single oral dose): 0
Oral herpes, treatment-emergent adverse events ([5]; 200 mg n = 6, single oral dose): 0
Viral upper respiratory tract infection, treatment-emergent adverse events ([5]; 200 mg n = 6, single oral dose): 0
participants with Grade 2 or higher abnormal cholesterol values ([5]; combined JNJ-61803534 group): Fourteen
participants with TEAEs reasonably related to the study agent ([5]; combined JNJ-61803534 group (diarrhea)): 1
TEAEs leading to death, treatment-emergent severe adverse events, severe TEAEs or TEAEs leading to discontinuation ([5]; in vivo): no
safety and tolerability ([5]; single doses up to and including 200 mg): safe and well-tolerated
genetic toxicity [6]: negative
EC50 ([7]; agonist): > 12.5 µM
IC50 ([7]; antagonist): > 12.5 µM
activity at 1 µM [8]: 95%
activity at 10 µM [8]: 106%
inhibition at 1 µM [9]: < 10%
inhibition at 10 µM [9]: < 10%
IL-17A and IL-17F expression ([10]; 30 mg/kg, ears, RNA level): trend towards inhibition
IMQ-induced neutrophils and inflammatory monocytes infiltrations in the ear ([10]; 100 mg/kg): significantly reduced
IMQ-induced expression of IL-17A, IL-17F, and IL-22 genes ([10]; 100 mg/kg, ears, RNA level): significantly inhibited
disease scores (thickness, redness, scaling) of back skin ([10]; 30 and 100 mg/kg oral, dose-dependent): significantly reduced
IL-10 expression ([10]; 30 and 100 mg/kg, RNA level): not inhibited
IL-23R expression ([10]; 30 and 100 mg/kg, RNA level): trend towards inhibition
IFNγ expression ([10]; RNA level): minimally impacted
IL-17A- and IL-17A/IL-22-producing γδ T cell populations ([10]; ear skin and draining lymph nodes, dose-dependent): reduced
pIC50 [11]: < 5.82
inhibition at 1 µM [12]: < 10%
inhibition at 10 µM [12]: < 10%
activity at 1 µM [13]: 111%
activity at 10 µM [13]: 105%
pIC50 [14]: < 5.82
EC50 ([15]; agonist): > 12.5 µM
IC50 ([15]; antagonist): > 12.5 µM
inhibition at 1 µM [16]: < 10%
inhibition at 10 µM [16]: < 10%
